# Measured values published in PMC10604274, “The Antiviral Activity of Varenicline against Dengue Virus Replication during the Post-Entry Stage” (Biomedicines, 2023).
# Biological target: T1, DENV-2 NS2B-NS3 protease (Dengue virus 2 Thailand/16681/84, UniProt P29990)
# T1 construct: NS2BNS3 gene RT-PCR amplified from DENV-2 16681 RNA genome; AVI tag in forward primer, F2A peptide in reverse primer; in pcDNA3.1-HisC (pcDNA-DEN2_NS2BNS3), transiently expressed in HEK293T; parts of the genome polyprotein; with Serine protease subunit NS2B
# T1 sequence (P29990 1346-2093 limits assumed): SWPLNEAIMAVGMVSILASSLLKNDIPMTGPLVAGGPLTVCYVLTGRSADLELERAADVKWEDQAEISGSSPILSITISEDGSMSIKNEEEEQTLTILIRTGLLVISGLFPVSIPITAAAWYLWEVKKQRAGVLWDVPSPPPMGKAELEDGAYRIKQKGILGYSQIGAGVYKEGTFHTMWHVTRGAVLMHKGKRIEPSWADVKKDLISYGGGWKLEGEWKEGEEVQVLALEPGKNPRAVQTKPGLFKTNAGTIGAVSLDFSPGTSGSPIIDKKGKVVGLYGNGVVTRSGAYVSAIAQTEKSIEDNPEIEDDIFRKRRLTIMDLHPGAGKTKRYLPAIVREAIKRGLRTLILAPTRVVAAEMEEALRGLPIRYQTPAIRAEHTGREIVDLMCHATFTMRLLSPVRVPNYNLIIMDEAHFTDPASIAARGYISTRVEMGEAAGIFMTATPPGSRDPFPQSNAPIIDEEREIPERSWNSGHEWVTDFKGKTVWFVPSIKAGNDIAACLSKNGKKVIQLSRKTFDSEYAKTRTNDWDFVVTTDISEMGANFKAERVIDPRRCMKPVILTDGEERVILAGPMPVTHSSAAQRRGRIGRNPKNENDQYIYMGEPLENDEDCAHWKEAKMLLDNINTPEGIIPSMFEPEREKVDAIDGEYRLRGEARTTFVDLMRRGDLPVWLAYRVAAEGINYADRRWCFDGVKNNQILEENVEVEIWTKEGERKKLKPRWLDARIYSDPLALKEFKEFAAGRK
# Assay: cell-based
smiles,measurement,value
c1cnc2cc3c(cc2n1)C1CNCC3C1 [varenicline],IC50,> 20 µM
